Test results as given in patent US20240358692A1, “TREATMENT OF SCLERODERMA” (Aisa Pharma, Inc., priority 2023, published 2024).
Entries after “also recorded” stand apart in the source; their conditions may differ. Read-outs that look alike come from different tables or passages of the source.

Legend:
[1] = system: participants with SSc-RP; experiment: SHAQ - Visual Analog Scale - Finger Ulcers; assay type: in vivo, human; details: for SHAQ Visual Analogue Scale - Finger Ulcers, Change from Baseline, Mean (SD) / SHAQ Visual Analogue Scale - Finger Ulcers, Change from Baseline, Median / SHAQ Visual Analogue Scale - Finger Ulcers, In-Clinic Visit (Day 12), Mean (SD) / SHAQ Visual Analogue Scale - Finger Ulcers, In-Clinic Visit (Day 12), Median / SHAQ Visual Analogue Scale - Finger Ulcers, Percent Change from Baseline, Mean (SD) / SHAQ Visual Analogue Scale - Finger Ulcers, Percent Change from Baseline, Median: Day 12; for % improvement in VAS Digital Ulcers: SHAQ, mITT Part A
From the text: The standard, validated, patient reported outcome measures tool for SSc patients, the Scleroderma Health Assessment Questionnaire (SHAQ), will be used to assess the participant qualify of life. Details are attached in the Appendix. The participant quality of life will be scored, and a disability index calculated for each questionnaire completed by the patient at Screening and each in-clinic visit. The absolute change in participant quality of life from baseline to the end of each dosing period will be calculated similar to frequency data as before.
The standard, validated, patient reported outcome measures tool for SSc patients, the SHAQ, was collected at the time points specified in the study schedules (FIG. 2 and FIGS. 4A and 4B) to assess the participant's quality of life. The SHAQ included a Raynaud's VAS that will also be reported separately.

[2] = system: participants with SSc-RP; assay type: in vivo
From the text: Treatment-emergent AEs (TEAEs) are defined as AEs that occur or worsen after the dose of study drug. If the timing of the start of an AE could not be determined unambiguously from the start or end dates provided, it will be assumed to be a TEAE. An AE is considered related if the relationship to either of the study drug has been indicated as possibly or probably or definite related by the investigator. An AE leading to study withdrawal is defined as an AE that cause a subject early terminated from the study. AEs will be identified as emerging in the following parts: • TEAEs for Part A will be those that started during Part A (i.e., from the first dose in Part A to end of follow up of Part A) • TEAEs for Part B will be those that started during Part B (i.e., from the first dose in Part B to end of follow-up of Part B).
In this study, AEs and SAEs were reported for all participants from the time of randomization until the completion of the Follow-up/EOS visit. Adverse events that were ongoing at the EOS visit were marked as Not Recovered/Not resolved on the AE eCRF page (see Section 9.4.4). The Investigator did full AE review during in-clinic visit. All spontaneously volunteered and enquired for, as well as observed AEs, were recorded in the participant's medical records and the eCRF.
Severity of AEs were graded by the Investigator as one of: • Mild (Grade 1): A type of AE that is usually transient and may require only minimal treatment or therapeutic intervention.

[3] = Any Cilnidipine (N = 17), PP Population, Part A
[4] = Cilnidipine 10 mg (N = 4), PP Population, Part A
[5] = Cilnidipine 20 mg (N = 4), PP Population, Part A
[6] = Pooled Cilnidipine 10 mg and Cilnidipine 10 mg + Tadalafil 5 mg, PP, Part A
[7] = Pooled Cilnidipine 20 mg and Cilnidipine 20 mg + Tadalafil 5 mg, PP, Part A
[8] = Pooled Cilnidipine (N = 8), PP Population, Part A
[9] = cilnidipine 10 mg (combination: + tadalafil 5 mg)
[10] = cilnidipine 20 mg (combination: + tadalafil 5 mg)

**Q.** What does the source list for `COCCOC(=O)C1=C(C)NC(C)=C(C(=O)OC/C=C/c2ccccc2)C1c1cccc([N+](=O)[O-])c1` (stereo not drawn) [Cilnidipine]?
**A.** SHAQ Visual Analogue Scale - Finger Ulcers, Change from Baseline, Mean (SD) [1, 3]: −0.540 (1.0568); SHAQ Visual Analogue Scale - Finger Ulcers, Change from Baseline, Median [1, 3]: −0.100; SHAQ Visual Analogue Scale - Finger Ulcers, In-Clinic Visit (Day 12), Mean (SD) [1, 3]: 0.731 (1.4351); SHAQ Visual Analogue Scale - Finger Ulcers, In-Clinic Visit (Day 12), Median [1, 3]: 0.000; SHAQ Visual Analogue Scale - Finger Ulcers, Percent Change from Baseline, Mean (SD) [1, 3]: −33.91 (69.617) %; SHAQ Visual Analogue Scale - Finger Ulcers, Percent Change from Baseline, Median [1, 3]: −36.11%; SHAQ Visual Analogue Scale - Finger Ulcers, Change from Baseline, Median [1, 4]: −0.350; SHAQ Visual Analogue Scale - Finger Ulcers, In-Clinic Visit (Day 12), Median [1, 4]: 0.000; SHAQ Visual Analogue Scale - Finger Ulcers, In-Clinic Visit (Day 12), Median ([1]; Cilnidipine 10 mg, PP Population Part A, sensitivity analysis): 0.000; SHAQ Visual Analogue Scale - Finger Ulcers, Change from Baseline, Median [1, 5]: 0.000; SHAQ Visual Analogue Scale - Finger Ulcers, In-Clinic Visit (Day 12), Median [1, 5]: 0.350; % improvement in VAS Digital Ulcers ([1]; Cilnidipine 20 mg (n = 3)): 35%; SHAQ Burden of Finger Ulcers, mean % change ([1]; Cilnidipine 20 mg (n = 3), minus = improvement, Table A*): −17%; SHAQ Visual Analogue Scale - Finger Ulcers, In-Clinic Visit (Day 12), Mean ([1]; Pooled Cilnidipine 10 mg and Cilnidipine 10 mg + Tadalafil 5 mg (N = 9), Modified ITT Population - Part A): 0.389; SHAQ VAS Finger Ulcers, Change from Baseline, Max [1, 6]: 0.00; SHAQ VAS Finger Ulcers, Change from Baseline, Min [1, 6]: −1.00,; SHAQ VAS Finger Ulcers, Change from Baseline, Q1 [1, 6]: −0.500,; SHAQ VAS Finger Ulcers, Change from Baseline, Q3 [1, 6]: 0.000; SHAQ VAS Finger Ulcers, Day 12, Max [1, 6]: 1.50; SHAQ VAS Finger Ulcers, Day 12, Min [1, 6]: 0.00,; SHAQ VAS Finger Ulcers, Day 12, Q1 [1, 6]: 0.000,; SHAQ VAS Finger Ulcers, Day 12, Q3 [1, 6]: 0.700; SHAQ VAS Finger Ulcers, Percent Change from Baseline, Max [1, 6]: 0.0; SHAQ VAS Finger Ulcers, Percent Change from Baseline, Min [1, 6]: −100.0,; SHAQ VAS Finger Ulcers, Percent Change from Baseline, Q1 [1, 6]: −100.00,; SHAQ VAS Finger Ulcers, Percent Change from Baseline, Q3 [1, 6]: −12.50; SHAQ VAS Finger Ulcers, Change from Baseline, Max [1, 7]: 0.40; SHAQ VAS Finger Ulcers, Change from Baseline, Min [1, 7]: −3.20,; SHAQ VAS Finger Ulcers, Change from Baseline, Q1 [1, 7]: −2.800,; SHAQ VAS Finger Ulcers, Change from Baseline, Q3 [1, 7]: 0.000; SHAQ VAS Finger Ulcers, Day 12, Max [1, 7]: 5.60; SHAQ VAS Finger Ulcers, Day 12, Median [1, 7]: 0.000; SHAQ VAS Finger Ulcers, Day 12, Min [1, 7]: 0.00,; SHAQ VAS Finger Ulcers, Day 12, Q1 [1, 7]: 0.000,; SHAQ VAS Finger Ulcers, Day 12, Q3 [1, 7]: 1.900; SHAQ VAS Finger Ulcers, Percent Change from Baseline, Max [1, 7]: 133.3; SHAQ VAS Finger Ulcers, Percent Change from Baseline, Min [1, 7]: −100.0,; SHAQ VAS Finger Ulcers, Percent Change from Baseline, Q1 [1, 7]: −81.37,; SHAQ VAS Finger Ulcers, Percent Change from Baseline, Q3 [1, 7]: 50.00; SHAQ Visual Analogue Scale - Finger Ulcers, Change from Baseline, Mean (SD) [1, 8]: −0.643 (1.2246); SHAQ Visual Analogue Scale - Finger Ulcers, Change from Baseline, Median [1, 8]: 0.000; SHAQ Visual Analogue Scale - Finger Ulcers, In-Clinic Visit (Day 12), Mean (SD) [1, 8]: 0.463 (0.7170); SHAQ Visual Analogue Scale - Finger Ulcers, In-Clinic Visit (Day 12), Median [1, 8]: 0.000; SHAQ Visual Analogue Scale - Finger Ulcers, Percent Change from Baseline, Mean (SD) [1, 8]: −17.08 (103.378) %; SHAQ Visual Analogue Scale - Finger Ulcers, Percent Change from Baseline, Median [1, 8]: −50.82%; % improvement in VAS Digital Ulcers ([1]; Pooled Cilnidipine (n = 7)): 19%; SHAQ VAS Finger Ulcers, Change from Baseline, Max ([1]; Pooled Cilnidipine, PP, Part A): 0.40; SHAQ VAS Finger Ulcers, Change from Baseline, Min ([1]; Pooled Cilnidipine, PP, Part A): −3.20,; SHAQ VAS Finger Ulcers, Change from Baseline, Q1 ([1]; Pooled Cilnidipine, PP, Part A): −1.000,; SHAQ VAS Finger Ulcers, Change from Baseline, Q3 ([1]; Pooled Cilnidipine, PP, Part A): 0.000; SHAQ VAS Finger Ulcers, Day 12, Max ([1]; Pooled Cilnidipine, PP, Part A): 1.90; SHAQ VAS Finger Ulcers, Day 12, Min ([1]; Pooled Cilnidipine, PP, Part A): 0.00,; SHAQ VAS Finger Ulcers, Day 12, Q1 ([1]; Pooled Cilnidipine, PP, Part A): 0.000,; SHAQ VAS Finger Ulcers, Day 12, Q3 ([1]; Pooled Cilnidipine, PP, Part A): 0.900; SHAQ VAS Finger Ulcers, Percent Change from Baseline, Max ([1]; Pooled Cilnidipine, PP, Part A): 133.3; SHAQ VAS Finger Ulcers, Percent Change from Baseline, Min ([1]; Pooled Cilnidipine, PP, Part A): −100.0,; SHAQ VAS Finger Ulcers, Percent Change from Baseline, Q1 ([1]; Pooled Cilnidipine, PP, Part A): −81.37,; SHAQ VAS Finger Ulcers, Percent Change from Baseline, Q3 ([1]; Pooled Cilnidipine, PP, Part A): 47.22; VAS Finger Ulcers Change from Baseline Max [1, 9]: 0.00; VAS Finger Ulcers Change from Baseline Median [1, 9]: −0.350; VAS Finger Ulcers Change from Baseline Min [1, 9]: −1.00; VAS Finger Ulcers Change from Baseline Q1 [1, 9]: −0.850; VAS Finger Ulcers Change from Baseline Q3 [1, 9]: 0.000; VAS Finger Ulcers Day 12 Max [1, 9]: 1.10; VAS Finger Ulcers Day 12 Median [1, 9]: 0.000; VAS Finger Ulcers Day 12 Min [1, 9]: 0.00; VAS Finger Ulcers Day 12 Q1 [1, 9]: 0.000; VAS Finger Ulcers Day 12 Q3 [1, 9]: 0.550; VAS Finger Ulcers Percent Change from Baseline Mean [1, 9]: −69.44%; VAS Finger Ulcers Percent Change from Baseline Median [1, 9]: −69.44%; VAS Finger Ulcers Percent Change from Baseline Min [1, 9]: −100.0%; VAS Finger Ulcers Percent Change from Baseline Q1 [1, 9]: −100.00%; VAS Finger Ulcers Change from Baseline Max [1, 10]: 0.40; VAS Finger Ulcers Change from Baseline Mean [1, 10]: −0.933; VAS Finger Ulcers Change from Baseline Median [1, 10]: 0.000; VAS Finger Ulcers Change from Baseline Min [1, 10]: −3.20; VAS Finger Ulcers Change from Baseline Q1 [1, 10]: −3.200; VAS Finger Ulcers Change from Baseline Q3 [1, 10]: 0.400; VAS Finger Ulcers Day 12 Max [1, 10]: 1.90; VAS Finger Ulcers Day 12 Median [1, 10]: 0.700; VAS Finger Ulcers Day 12 Min [1, 10]: 0.00; VAS Finger Ulcers Day 12 Q1 [1, 10]: 0.000; VAS Finger Ulcers Day 12 Q3 [1, 10]: 1.900; VAS Finger Ulcers Percent Change from Baseline Max [1, 10]: 133.3%; VAS Finger Ulcers Percent Change from Baseline Mean [1, 10]: 35.29%; VAS Finger Ulcers Percent Change from Baseline Median [1, 10]: 35.29%; VAS Finger Ulcers Percent Change from Baseline Min [1, 10]: −62.7%; VAS Finger Ulcers Percent Change from Baseline Q1 [1, 10]: −62.75%; VAS Finger Ulcers Percent Change from Baseline Q3 [1, 10]: 133.33%; tolerability ([2]; 10 mg and 20 mg, alone or in combination with tadalafil): well tolerated; Safety: number of AE ([2]; Cilnidipine 20 mg, HA, mild, n = 8): 1AE (HA−mild; 1; Safety: withdrawals ([2]; Cilnidipine 20 mg, n = 8): 1AE (HA−mild; 1 withdrawal; Safety: withdrawals ([2]; Pooled Cilnidipine, n = 9): T); no withdrawals; treatment discontinuations due to intolerance ([2]; all patients who received any dose of cilnidipine (n=17)): no treatment discontinuations due to intolerance were reported; incidence of Adverse Events / overall adverse event rate ([2]; all patients who received any dose of cilnidipine (n=17), Part A): 17%; Adverse effects ([2]; any Profervia dose): 17% Adverse effects in; severity grade of adverse events ([2]; patients treated with cilnidipine, Part A): only Grade 1 Adverse Events (AEs) were reported; also recorded: only mild (Grade 1) adverse events occurred; Safety: grade of Adverse Events (AEs) ([2]; summary of data): Grade 1 Adverse; Safety: treatment D/Cs (discontinuations) ([2]; summary of data): No treatment D/Cs
